Earlier results on two compounds are cited in patent US11905435B2, “Antimicrobial additive compositions for coatings” (PEGASUS ENVIRONMENTAL RESEARCH AND INVESTMENT GROUP LLC, priority 2020, dated 2024).

The subject of one data set is enteric bacteria. Particulars: Bailey et al. [5].
Data set [1] concerns Saccharomyces cerevisiae yeast. The settings on record: Reeder et al. [7].
A further data set deals with Pityrosporum ovale. The settings on record: Imokawa et al. [6].

For the compound `OB(O)O` [boric acid], the “antibacterial effects on enteric bacteria” value in the data set with enteric bacteria is “antibacterial effects”.

With zinc pyrithione [CP], the “anti-yeast effect on Saccharomyces cerevisiae” value in data set [1] was “anti-yeast effect”. Moreover, the “antifungal effects on Pityrosporum ovale” value in the data set on Pityrosporum ovale was “antifungal effects”.
